Experimental data published in paper PMC9100673, “Acridine Based N-Acylhydrazone Derivatives as Potential Anticancer Agents: Synthesis, Characterization and ctDNA/HSA Spectroscopic Binding Properties” (Molecules, 2022).

Target: T1, human serum albumin (HSA) (Homo sapiens, UniProt P02768)
T1 construct: purchased Sigma (St. Louis, MO, USA)
Assay: Three-dimensional fluorescence spectra of HSA
Type: binding
Details: HSA:compound 1:1, 4 μM, 25 °C
Text: A useful method for studying drug-HSA interactions is three-dimensional fluorescence spectroscopy, which can offer information about the structural changes to the polypeptide backbone structure and the microenvironment polarity around the Trp and Tyr residues. Peak a (λex = λem) is […], while peak b (2λex = λem) is […]. The change at peak 1 (280/339 nm) reflects a change in the polarity of the microenvironment around the Trp and Tyr residues, and peak 2 (230/336 nm) characterizes the polypeptide backbone structure. […] The fluorescence intensities of both peaks decreased after the addition of derivatives 3a–3d, with a more pronounced decrease observed in the fluorescence intensity of peak 2. […] The changes observed in the 3D spectra correlate with the results of earlier quenching fluorescence experiments. […]
The 3DF spectra of HSA were performed in the absence and presence of compounds 3a–3d using an excitation wavelength range of 200–350 nm and an emission wavelength range of 200–600 nm at room temperature (25 °C). The 3D spectra were recorded for 4 μM of HSA in a 2 mL buffer solution (100 mM NaCl and 10 mM Tris-HCl buffer pH = 7.4) and for the HSA:3a–3d complexes at a concentration ratio 1:1. […]

T1 sequence (P02768 25-609): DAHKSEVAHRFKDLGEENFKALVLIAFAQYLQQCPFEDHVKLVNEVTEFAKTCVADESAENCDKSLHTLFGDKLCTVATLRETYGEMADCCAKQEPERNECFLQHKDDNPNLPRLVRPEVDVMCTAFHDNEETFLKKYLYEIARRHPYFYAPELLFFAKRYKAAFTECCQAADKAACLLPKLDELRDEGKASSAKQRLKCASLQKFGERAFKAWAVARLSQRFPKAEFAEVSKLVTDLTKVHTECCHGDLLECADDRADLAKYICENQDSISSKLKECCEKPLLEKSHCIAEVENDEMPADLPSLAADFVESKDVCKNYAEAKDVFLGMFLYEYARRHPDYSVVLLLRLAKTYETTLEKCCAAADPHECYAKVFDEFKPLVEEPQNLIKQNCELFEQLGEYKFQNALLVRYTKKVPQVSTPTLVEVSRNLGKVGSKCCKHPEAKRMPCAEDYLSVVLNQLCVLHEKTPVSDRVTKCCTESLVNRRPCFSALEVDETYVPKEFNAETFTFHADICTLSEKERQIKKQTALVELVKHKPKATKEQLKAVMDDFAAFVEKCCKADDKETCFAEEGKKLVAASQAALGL

O=C(N/N=C/c1cccc2cc3ccccc3nc12)c1ccccc1 [3a, N′-[(E)-(Acridin-4-yl)methylidene]benzohydrazide]
blue shift of peak 1 (280/339 nm): 8 nm | blue shift of peak 2 (230/336 nm): 10 nm
